Data taken from PubChem BioAssay AID624129 (Sanford-Burnham Center for Chemical Genomics, 2012).
pIC50: −log10 of the molar value. Calls of active or inactive are those of the source. How the calls were made is not given here.

Assays:
Assay in all cases: potency against CXCR6 with APJ panel – cell-based, beta-arrestin, DiscoveRx, uHTS hits, dose response (AID 624129)
[1] = target: Apelin receptor (Homo sapiens) (UniProt P35414); settings: CXCR6 beta-arrestin (DiscoveRx) antagonist cell assay, APJ
[2] = target: C-C chemokine receptor type 6 (Homo sapiens) (UniProt P51684); settings: CXCR6 beta-arrestin (DiscoveRx) antagonist cell assay
[3] = target: C-X-C chemokine receptor type 6 (Homo sapiens) (UniProt O00574); settings: CXCR6 beta-arrestin (DiscoveRx) antagonist cell assay; for inhibition: CXCR6, run 1, dose range 2, at 80 µM (top of the series)
[4] = target: Beta-galactosidase (Escherichia coli) (UniProt Q8VNN2); settings: CXCR6 beta-arrestin (DiscoveRx) antagonist cell assay, b-galactosidase
[5] = dose range 1, mean IC50 across replicates
[6] = CCR6, dose range 1, mean IC50 across replicates
[7] = CXCR6, dose range 1, mean IC50 across replicates

Sequence of Beta-galactosidase (Escherichia coli) (Q8VNN2 whole entry, looked up): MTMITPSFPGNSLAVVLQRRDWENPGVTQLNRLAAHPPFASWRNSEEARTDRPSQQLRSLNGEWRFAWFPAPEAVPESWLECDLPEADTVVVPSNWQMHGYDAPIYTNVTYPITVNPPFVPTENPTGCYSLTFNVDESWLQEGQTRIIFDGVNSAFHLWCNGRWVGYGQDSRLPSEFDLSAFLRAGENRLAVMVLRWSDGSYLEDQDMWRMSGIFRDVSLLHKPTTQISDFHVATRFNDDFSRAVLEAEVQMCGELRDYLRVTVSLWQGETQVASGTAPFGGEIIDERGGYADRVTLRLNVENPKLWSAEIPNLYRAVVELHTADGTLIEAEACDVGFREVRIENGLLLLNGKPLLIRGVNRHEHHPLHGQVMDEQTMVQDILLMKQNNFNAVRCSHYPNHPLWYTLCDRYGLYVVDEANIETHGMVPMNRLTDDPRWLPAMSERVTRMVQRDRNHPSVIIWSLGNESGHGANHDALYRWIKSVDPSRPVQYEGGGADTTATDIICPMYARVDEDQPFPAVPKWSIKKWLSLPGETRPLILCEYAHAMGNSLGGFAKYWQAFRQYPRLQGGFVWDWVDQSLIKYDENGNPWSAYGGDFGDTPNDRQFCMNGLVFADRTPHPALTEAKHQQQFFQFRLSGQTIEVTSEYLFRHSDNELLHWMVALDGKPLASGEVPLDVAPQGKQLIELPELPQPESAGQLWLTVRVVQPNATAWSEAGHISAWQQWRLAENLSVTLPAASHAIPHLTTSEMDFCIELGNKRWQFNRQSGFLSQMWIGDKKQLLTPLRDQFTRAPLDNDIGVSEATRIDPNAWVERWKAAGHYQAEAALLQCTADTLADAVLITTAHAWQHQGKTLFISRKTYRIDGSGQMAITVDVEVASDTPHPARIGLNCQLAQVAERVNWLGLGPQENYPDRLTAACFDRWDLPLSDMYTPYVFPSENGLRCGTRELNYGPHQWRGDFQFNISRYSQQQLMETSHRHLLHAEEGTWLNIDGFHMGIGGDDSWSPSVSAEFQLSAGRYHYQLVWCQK
Sequence of C-X-C chemokine receptor type 6 (Homo sapiens) (O00574 whole entry, looked up): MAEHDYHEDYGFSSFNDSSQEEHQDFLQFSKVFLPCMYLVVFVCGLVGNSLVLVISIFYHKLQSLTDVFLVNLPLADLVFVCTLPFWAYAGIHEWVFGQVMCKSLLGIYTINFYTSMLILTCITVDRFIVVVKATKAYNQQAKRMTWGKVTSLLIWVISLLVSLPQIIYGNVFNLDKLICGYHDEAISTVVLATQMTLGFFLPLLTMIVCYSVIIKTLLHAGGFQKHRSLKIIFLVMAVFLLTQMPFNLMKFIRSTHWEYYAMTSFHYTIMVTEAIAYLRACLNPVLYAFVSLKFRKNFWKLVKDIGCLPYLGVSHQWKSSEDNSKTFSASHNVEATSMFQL

| pIC50 ([1]; dose range 1) | pIC50 [1, 5] | pIC50 ([1]; run 2, dose range 1) | pIC50 ([1]; run 3, dose range 1) | pIC50 ([2]; CCR6, dose range 1) | pIC50 [2, 6] | pIC50 ([2]; CCR6, run 2, dose range 1) | pIC50 ([3]; CXCR6, dose range 1) | pIC50 [3, 7] | inhibition [3] [%] | pIC50 ([3]; CXCR6, run 2, dose range 1) | IC50 ([4]; dose range 1) | pIC50 [4, 5] | IC50 ([3]; CXCR6, dose range 1) | pIC50 ([3]; CXCR6, run 1, dose range 2) | pIC50 ([3]; CXCR6, run 2, dose range 2) | pIC50 ([4]; dose range 1) | SMILES |
| --- | --- | --- | --- | --- | --- | --- | --- | --- | --- | --- | --- | --- | --- | --- | --- | --- | --- |
| 4.67 | 4.71 | 4.76 | 4.70 | 4.94 | 4.94 | 4.94 | – | < 4.10 | 118 | < 4.10 | > 80 µM (inactive) | < 4.10 | > 80 µM (inactive) | – | – | – | O=[N+]([O-])c1ccc(Sc2cccc[n+]2[O-])c2nonc12 |
| 4.66 | 4.71 | 4.74 | 4.72 | 4.98 | 4.95 | 4.91 | – | 4.90 | 114 | 4.98 | > 80 µM (inactive) | < 4.10 | inactive | – | – | – | COc1ccc(OC)c2sc(N(CCCN(C)C)C(=O)CCS(=O)(=O)c3ccccc3)nc12 |
| 4.88 | 4.91 | 5.00 | 4.86 | 5.12 | 5.14 | 5.16 | 4.99 | 4.97 | – | 4.91 | > 80 µM (inactive) | < 4.10 | – | 5.06 | 4.93 | – | C=CS(=O)(=O)c1ccc(Oc2ccc(S(=O)(=O)C=C)cc2)cc1 |
| 5.07 | 5.04 | 5.02 | 5.05 | 5.06 | 5.00 | 4.94 | 4.94 | 5.05 | – | 4.94 | > 80 µM (inactive) | < 4.10 | – | 5.22 | 5.16 | – | O=C(Nc1nc(-c2ccccn2)cs1)Nc1ccc(F)cc1F |
| 4.16 | 4.16 | < 4.10 | < 4.10 | 4.56 | 4.42 | 4.31 | – | 4.34 | 73.2 | 4.49 | > 80 µM (inactive) | < 4.10 | inactive | – | – | – | CS(=O)(=O)c1sc(C#N)c2c1C(=O)CC(c1ccccc1)C2 (stereo not drawn) |
| 4.68 | 4.61 | 4.55 | < 4.10 | 4.85 | 4.79 | 4.74 | – | 4.68 | 38.7 | < 4.10 | > 80 µM (inactive) | < 4.10 | inactive | – | – | – | CCOc1ccc(NCC(=O)c2ccc(C)cc2)cc1 |
| 5.16 | 5.15 | 5.15 | 5.15 | 5.25 | 5.20 | 5.15 | 5.15 | 5.21 | – | 5.07 | > 80 µM (inactive) | < 4.10 | – | 5.35 | 5.32 | – | S=C(N/N=C/c1ccccc1)N1CCOCC1 |

The next lines start with the compound.

| SMILES | pIC50 ([1]; dose range 1) | pIC50 [1, 5] | pIC50 ([1]; run 2, dose range 1) | pIC50 ([1]; run 3, dose range 1) | pIC50 ([2]; CCR6, dose range 1) | pIC50 [2, 6] | pIC50 ([2]; CCR6, run 2, dose range 1) | pIC50 ([3]; CXCR6, dose range 1) | pIC50 [3, 7] | inhibition [3] [%] | pIC50 ([3]; CXCR6, run 2, dose range 1) | IC50 ([4]; dose range 1) | pIC50 [4, 5] | IC50 ([3]; CXCR6, dose range 1) | pIC50 ([3]; CXCR6, run 1, dose range 2) | pIC50 ([3]; CXCR6, run 2, dose range 2) | pIC50 ([4]; dose range 1) |
| --- | --- | --- | --- | --- | --- | --- | --- | --- | --- | --- | --- | --- | --- | --- | --- | --- | --- |
| CCOC(=O)c1c(SCCN2CCCCC2)n(-c2ccccc2)c(=S)n(-c2ccccc2)c1=O | 5.22 | 5.17 | 5.15 | 5.14 | 5.34 | 5.23 | 5.14 | 4.95 | 5.07 | 130 | 5.22 | > 80 µM (inactive) | < 4.10 | – | – | – | – |
| O=C1C=CC(=O)N1c1cccc(-c2ccccc2)c1 | – | 4.64 | 4.64 | < 4.10 | 4.33 | 4.33 | < 4.10 | 5.01 | 5.02 | 21.2 | < 4.10 | > 80 µM (inactive) | < 4.10 | – | – | – | – |
| COc1ccccc1-c1cc(C(F)(F)F)nc(S(=O)(=O)CCCC(=O)NCc2ccc(F)cc2)n1 | – | < 4.10 | < 4.10 | < 4.10 | – | < 4.10 | < 4.10 | – | < 4.10 | -37.9 | < 4.10 | > 80 µM (inactive) | < 4.10 | > 80 µM (inactive) | – | – | – |
| COC(=O)c1ccc2c(c1)C(C)(C)C(/C=C/c1ccccc1O)=[N+]2C | 4.79 | 4.80 | 4.85 | 4.76 | 4.99 | 4.95 | 4.91 | – | 4.93 | – | 4.87 | – | 4.62 | inactive | 5.05 | 5.01 | 4.62 |
| O=[N+]([O-])/C=C/c1c(Cl)cccc1Cl | – | 4.84 | < 4.10 | 4.85 | – | < 4.10 | < 4.10 | – | < 4.10 | 54 | < 4.10 | > 80 µM (inactive) | < 4.10 | > 80 µM (inactive) | – | – | – |
| C=C1C(=O)[C@]23C[C@H]1CCC2[C@@]1(C)C(C[C@@H]3O)[C@](C)(C(=O)OC)CC[C@@H]1OC(C)=O (stereo partly drawn) | 5.02 | 4.67 | 5.06 | 4.34 | 5.38 | 5.33 | 5.28 | 5.15 | 5.15 | – | 5.27 | > 80 µM (inactive) | < 4.10 | – | 5.06 | 5.16 | – |
| Oc1c(I)cc(Cl)c2cccnc12 | 5.43 | 4.73 | 4.89 | 4.40 | 5.28 | 5.19 | 5.12 | 5.19 | 5.36 | 49.5 | 5.65 | > 80 µM (inactive) | < 4.10 | – | – | – | – |
| O=[N+]([O-])c1c(Nc2ccccc2O)cc(Cl)c2nonc12 | 4.70 | 4.63 | 4.61 | 4.60 | 4.93 | 4.90 | 4.87 | – | 4.89 | 123 | 5.04 | > 80 µM (inactive) | < 4.10 | inactive | – | – | – |
| C/C(=N\NC(=O)C1COc2ccccc2O1)c1ccccn1 (stereo not drawn) | 5.23 | 5.25 | 5.33 | 5.21 | 5.49 | 5.41 | 5.35 | – | 4.81 | – | 4.90 | > 80 µM (inactive) | < 4.10 | inactive | 5.41 | 5.43 | – |
| CS(=O)(=O)c1ncc(Cl)c(C(=O)Nc2ccc3ccccc3c2)n1 | 4.21 | 4.22 | 4.22 | < 4.10 | – | 4.32 | 4.32 | – | < 4.10 | 47.9 | < 4.10 | > 80 µM (inactive) | < 4.10 | > 80 µM (inactive) | – | – | – |
| COc1ccc(C(=O)/C=C/C(=O)N(CC(=O)NC2CCCCC2)CC2CCCO2)c(O)c1 (stereo not drawn) | – | < 4.10 | < 4.10 | < 4.10 | – | < 4.10 | < 4.10 | – | < 4.10 | -34.5 | < 4.10 | > 80 µM (inactive) | < 4.10 | > 80 µM (inactive) | – | – | – |
| COC(=O)C1=C(c2ccc(-c3ccccc3)c(F)c2)C[C@@H]2CC[C@H]1N2C(=O)N1CCC(C)CC1 | 5.07 | 4.96 | 4.86 | 4.99 | 5.31 | 5.08 | 4.94 | – | 4.95 | 88 | 4.97 | > 80 µM (inactive) | < 4.10 | inactive | – | – | – |
| CC(C)(C)c1ccc(CN2N=Nc3ccccc3S2(=O)=O)cc1 | 4.87 | 4.59 | 4.55 | 4.45 | 4.95 | 4.76 | 4.64 | – | 4.79 | 142 | 4.70 | > 80 µM (inactive) | < 4.10 | inactive | – | – | – |
| CC(=O)Nc1ccc(NCC(=O)c2ccccc2)cc1 | – | 4.58 | 4.60 | 4.56 | 4.54 | 4.58 | 4.62 | – | 4.63 | 62 | 4.66 | inactive | 4.23 | inactive | – | – | – |
| CCO[C@@H]1OC(C(=O)N2CCN(Cc3ccccc3)CC2)=C[C@H](c2ccc(Br)cc2)[C@H]1CCCO | 4.78 | 4.71 | 4.68 | 4.69 | 4.94 | 4.94 | 4.94 | – | 4.92 | 126 | 5.04 | > 80 µM (inactive) | < 4.10 | inactive | – | – | – |
